The structures appear in SMILES notation. A value given as a limit tells only on which side of the number the result lay.

For orientation: pest or weed control means the degree to which the test organism was suppressed or injured, in per cent. The low end stands for weak suppression, the high end for strong suppression.

The test deals with Pythium graminicola. Nature of the test: Test 4: control effect against damping-off disease of rice by Pythium (soil irrigation). The settings on record: 336 h, 1000 ppm test suspension, 2.5 ml soil irrigation, rice (Koshihikari) in contaminated soil, from degree of disease development. The format is in vivo.
Compound `COc1ccc(OS(C)(=O)=O)c2c1COC(c1csc(C3CCN(C(=O)Cn4nc(Cl)cc4Cl)CC3)n1)OC2` (stereo not shown) [Compound 2-33, 4-[4-(6-methoxy-9-methylsulfonyloxy-1,5-dihydro-3H-2,4-benzodioxepin-3-yl)-2-thiazolyl]-1-[2-(3,5-dichloro-1H-pyrazol-1-yl)acetyl]piperidine] gave a pest or weed control at 1000 ppm of no less than 90%.

Turning to `COc1ccc(OS(C)(=O)=O)c2c1COC(c1csc(C3CCN(C(=O)Cn4nc(C)cc4C)CC3)n1)OC2` (stereo not shown) [Compound 2-34, 4-[4-(6-methoxy-9-methylsulfonyloxy-1,5-dihydro-3H-2,4-benzodioxepin-3-yl)-2-thiazolyl]-1-[2-(3,5-dimethyl-1H-pyrazol-1-yl)acetyl]piperidine], the pest or weed control at 1000 ppm is no less than 90%.

For the compound `CS(=O)(=O)Oc1cccc2c1COC(c1csc(C3CCN(C(=O)Cn4nc(C(Cl)Cl)cc4C(Cl)Cl)CC3)n1)OC2` (stereo not shown) [Compound 2-38, 4-[4-(6-methylsulfonyloxy-1,5-dihydro-3H-2,4-benzodioxepin-3-yl)-2-thiazolyl]-1-[2-[3,5-bis(dichloromethyl)-1H-pyrazol-1-yl]acetyl]piperidine], the pest or weed control at 1000 ppm was no less than 90%.

The compound `CS(=O)(=O)Oc1ccc(Br)c2c1COC(c1csc(C3CCN(C(=O)Cn4nc(C(F)(F)F)cc4C(F)(F)F)CC3)n1)OC2` (stereo not shown) [Compound 2-42, 4-[4-(6-bromo-9-methylsulfonyloxy-1,5-dihydro-3H-2,4-benzodioxepin-3-yl)-2-thiazolyl]-1-[2-[3,5-bis(trifluoromethyl)-1H-pyrazol-1-yl]acetyl]piperidine] had a pest or weed control at 1000 ppm of no less than 90%.

Turning to `CS(=O)(=O)Oc1ccc(I)c2c1COC(c1csc(C3CCN(C(=O)Cn4nc(C(F)(F)F)cc4C(F)(F)F)CC3)n1)OC2` (stereo not shown) [Compound 2-46, 4-[4-(6-iodo-9-methylsulfonyloxy-1,5-dihydro-3H-2,4-benzodioxepin-3-yl)-2-thiazolyl]-1-[2-[3,5-bis(trifluoromethyl)-1H-pyrazol-1-yl]acetyl]piperidine], the pest or weed control at 1000 ppm is no less than 90%.

Compound `CS(=O)(=O)Oc1c(F)ccc2c1COC(c1csc(C3CCN(C(=O)Cn4nc(C(F)(F)F)cc4C(F)(F)F)CC3)n1)OC2` (stereo not shown) [Compound 2-48, 4-[4-(7-fluoro-6-methylsulfonyloxy-1,5-dihydro-3H-2,4-benzodioxepin-3-yl)-2-thiazolyl]-1-[2-[3,5-bis(trifluoromethyl)-1H-pyrazol-1-yl]acetyl]piperidine] displayed a pest or weed control at 1000 ppm of no less than 90%.

Consider `CS(=O)(=O)Oc1c(F)ccc2c1COC(c1csc(C3CCN(C(=O)Cn4nc(C(F)F)cc4C(F)F)CC3)n1)OC2` (stereo not shown) [Compound 2-49, 4-[4-(7-fluoro-6-methylsulfonyloxy-1,5-dihydro-3H-2,4-benzodioxepin-3-yl)-2-thiazolyl]-1-[2-[3,5-bis(difluoromethyl)-1H-pyrazol-1-yl]acetyl]piperidine], for which the pest or weed control at 1000 ppm was no less than 90%.

In turn, `CS(=O)(=O)Oc1ccc(OS(C)(=O)=O)c2c1COC(c1csc(C3CCN(C(=O)Cn4nc(C(F)(F)F)cc4C(F)(F)F)CC3)n1)OC2` [Compound 2-54, 4-[4-[6,9-bis(methylsulfonyloxy)-1,5-dihydro-3H-2,4-benzodioxepin-3-yl]-2-thiazolyl]-1-[2-[3,5-bis(trifluoromethyl)-1H-pyrazol-1-yl]acetyl]piperidine] displayed a pest or weed control at 1000 ppm of no less than 90%.

On to `CCCCS(=O)(=O)Oc1cccc2c1COC(c1csc(C3CCN(C(=O)Cc4cc(C)ccc4C)CC3)n1)OC2` (stereo not shown) [Compound 3-4, 4-[4-(6-butylsulfonyloxy-1,5-dihydro-3H-2,4-benzodioxepin-3-yl)-2-thiazolyl]-1-[2-(2,5-dimethylphenyl)acetyl]piperidine], for which the pest or weed control at 1000 ppm is no less than 90%.

In turn, `CS(=O)(=O)Oc1cccc2c1COC(c1csc(C3CCN(C(=O)Cc4cc(C(F)(F)F)ccc4C(F)(F)F)CC3)n1)OC2` (stereo not shown) [Compound 3-8, 4-[4-(6-methylsulfonyloxy-1,5-dihydro-3H-2,4-benzodioxepin-3-yl)-2-thiazolyl]-1-[2-[2,5-bis(trifluoromethyl)phenyl]acetyl]piperidine] had a pest or weed control at 1000 ppm of no less than 90%.

In the case of `Cc1ccc(C)c(CC(=O)N2CCC(c3nc(C4OCc5c(OS(C)(=O)=O)cc(C)c(C)c5CO4)cs3)CC2)c1` (stereo not shown) [Compound 3-9, 4-[4-(6,7-dimethyl-9-methylsulfonyloxy-1,5-dihydro-3H-2,4-benzodioxepin-3-yl)-2-thiazolyl]-1-[2-(2,5-dimethylphenyl)acetyl]piperidine], the pest or weed control at 1000 ppm is no less than 90%.

In turn, `CS(=O)(=O)Oc1c(F)ccc2c1COC(c1csc(C3CCN(C(=O)Cc4cc(Cl)ccc4Cl)CC3)n1)OC2` (stereo not shown) [Compound 3-19, 4-[4-(7-fluoro-6-methylsulfonyloxy-1,5-dihydro-3H-2,4-benzodioxepin-3-yl)-2-thiazolyl]-1-[2-(2,5-dichlorophenyl)acetyl]piperidine] yielded a pest or weed control at 1000 ppm of no less than 90%.

`CS(=O)(=O)Oc1ccc(I)c2c1COC(c1csc(C3CCN(C(=O)Cc4cc(Cl)ccc4Cl)CC3)n1)OC2` (stereo not shown) [Compound 3-20, 4-[4-(6-iodo-9-methylsulfonyloxy-1,5-dihydro-3H-2,4-benzodioxepin-3-yl)-2-thiazolyl]-1-[2-(2,5-dichlorophenyl)acetyl]piperidine] gave a pest or weed control at 1000 ppm of no less than 90%.

For the origin of these results see patent US11274076B2, “Process for preparing 1, 2-benzenedimethanol compound” (GOWAN COMPANY, L.L.C., priority 2016, dated 2022).
